According to PubChem BioAssay AID256 (DTP/NCI, 2004):
Several values for one entry are separate records, joined by “and”; a condition that tells them apart may be missing. Identical values can stand only once. Toxic doses and inconclusive results are not listed.

Test system: CD2F1 mice, L1210 leukemia ip, survival T/C
Experiment: NCI In Vivo Anticancer Drug Screen. Data for tumor model L1210 Leukemia (intraperitoneal) in CD2F1 (CDF1) mice
Settings: endpoint: mean survival time, higher = longer survival
Procedure, shortened: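 In this screen, transplantable tumors were grown in mice given either the compound or its vehicle. Results were expressed as the treated measurement relative to the control measurement.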

[1] = dose: 75.0 mg/kg/injection, schedule: Q01DX001 (ip), vehicle: saline
[2] = dose: 150.0 mg/kg/injection, schedule: Q01DX001 (ip), vehicle: saline
[3] = dose: 300.0 mg/kg/injection, schedule: Q01DX001 (ip), vehicle: saline
[4] = dose: 100.0 mg/kg/injection, schedule: Q01DX001 (ip), vehicle: Klucel (hydroxypropylcellulose) (HPC)
[5] = dose: 200.0 mg/kg/injection, schedule: Q01DX001 (ip), vehicle: Klucel (hydroxypropylcellulose) (HPC)
[6] = dose: 400.0 mg/kg/injection, schedule: Q01DX001 (ip), vehicle: Klucel (hydroxypropylcellulose) (HPC)
[7] = dose: 12.5 mg/kg/injection, schedule: Q04DX003 (ip), vehicle: saline with Tween-80
[8] = dose: 25.0 mg/kg/injection, schedule: Q04DX003 (ip), vehicle: saline with Tween-80
[9] = dose: 100.0 mg/kg/injection, schedule: Q01DX001 (ip), vehicle: saline with Tween-80
[10] = dose: 200.0 mg/kg/injection, schedule: Q01DX001 (ip), vehicle: saline with Tween-80
[11] = dose: 400.0 mg/kg/injection, schedule: Q01DX001 (ip), vehicle: saline with Tween-80
[12] = dose: 100.0 mg/kg/injection, schedule: Q04DX003 (ip), vehicle: saline with Tween-80
[13] = dose: 200.0 mg/kg/injection, schedule: Q04DX003 (ip), vehicle: saline with Tween-80
[14] = dose: 400.0 mg/kg/injection, schedule: Q04DX003 (ip), vehicle: saline with Tween-80
[15] = dose: 50.0 mg/kg/injection, schedule: Q04DX003 (ip), vehicle: saline with Tween-80
[16] = dose: 12.5 mg/kg/injection, schedule: Q01DX009 (ip), vehicle: saline with Tween-80
[17] = dose: 25.0 mg/kg/injection, schedule: Q01DX009 (ip), vehicle: saline with Tween-80
[18] = dose: 50.0 mg/kg/injection, schedule: Q01DX009 (ip), vehicle: saline with Tween-80
[19] = dose: 100.0 mg/kg/injection, schedule: Q01DX009 (ip), vehicle: saline with Tween-80
[20] = dose: 200.0 mg/kg/injection, schedule: Q01DX009 (ip), vehicle: saline with Tween-80
[21] = dose: 400.0 mg/kg/injection, schedule: Q01DX009 (ip), vehicle: saline with Tween-80
[22] = dose: 6.25 mg/kg/injection, schedule: Q01DX009 (ip), vehicle: saline with Tween-80

Structure (SMILES): NC(=O)Nc1ccccc1
- T/C (dose: 100.0 mg/kg/injection, schedule: Q01DX009 (ip), vehicle: saline): 98 % of control
- T/C (dose: 200.0 mg/kg/injection, schedule: Q01DX009 (ip), vehicle: saline): 98 % of control
- T/C (dose: 400.0 mg/kg/injection, schedule: Q01DX009 (ip), vehicle: saline): 101 % of control

Structure (SMILES): CCCCCCC(C)NCCOC(=O)c1ccccc1 (stereo unspecified)
- T/C [1]: 103 % of control
- T/C [2]: 102 % of control
- T/C [3]: 97 % of control

Structure (SMILES): CC(=O)Nc1ncc2ccccc2c1-c1ccc(N(CCOS(=O)(=O)c2ccc(C)cc2)CCOS(=O)(=O)c2ccc(C)cc2)cc1
- T/C (dose: 25.0 mg/kg/injection, schedule: Q04DX003 (ip), vehicle: DMSO): 108 % of control
- T/C (dose: 50.0 mg/kg/injection, schedule: Q04DX003 (ip), vehicle: DMSO): 104 % of control
- T/C (dose: 100.0 mg/kg/injection, schedule: Q04DX003 (ip), vehicle: DMSO): 110 % of control
- T/C (dose: 200.0 mg/kg/injection, schedule: Q04DX003 (ip), vehicle: DMSO): 116 % of control
- T/C (dose: 400.0 mg/kg/injection, schedule: Q04DX003 (ip), vehicle: DMSO): 108 % of control

Structure (SMILES): CCCC1C(=O)N=C(N)NC1=O (stereo unspecified)
- T/C [4]: 97 % of control
- T/C [5]: 104 % of control
- T/C [6]: 101 % of control

Structure (SMILES): CCCCOC(=O)c1ccccc1C(=O)O.CCCCOC(=O)c1ccccc1C(=O)O.[Cu+2]
- T/C (dose: 6.25 mg/kg/injection, schedule: Q04DX003 (ip), vehicle: saline with Tween-80): 91 % of control
- T/C [7]: 95 % of control
- T/C [8]: 93 % of control

Structure (SMILES): O=C(Cl)c1ccccc1/C=C/c1ccc([N+](=O)[O-])cc1
- T/C [9]: 105 % of control
- T/C [10]: 103 % of control
- T/C [11]: 96 % of control

Structure (SMILES): COC(=O)c1cc(NC(C)=O)ccc1S(=O)(=O)c1ccc(NC(C)=O)cc1C(=O)OC
- T/C [12]: 101 % of control
- T/C [13]: 101 % of control
- T/C [14]: 97 % of control

Structure (SMILES): O=C1C2C3C=CC(C3)C2C(=O)N1O (stereo unspecified)
- T/C (dose: 50.0 mg/kg/injection, schedule: Q01DX001 (ip), vehicle: carboxymethylcellulose (CMC)): 106 % of control
- T/C (dose: 100.0 mg/kg/injection, schedule: Q01DX001 (ip), vehicle: carboxymethylcellulose (CMC)): 100 % of control
- T/C (dose: 200.0 mg/kg/injection, schedule: Q01DX001 (ip), vehicle: carboxymethylcellulose (CMC)): 112 % of control
- T/C (dose: 400.0 mg/kg/injection, schedule: Q01DX001 (ip), vehicle: carboxymethylcellulose (CMC)): 96 % of control

Structure (SMILES): O=C(NCCN1CC1)c1ccccc1C(=O)NCCN1CC1
- T/C [8]: 105 % of control
- T/C [15]: 100 % of control
- T/C (dose: 100.0 mg/kg/injection, schedule: Q01DX001 (ip), vehicle: saline): 110 % of control
- T/C [12]: 117 % of control
- T/C (dose: 200.0 mg/kg/injection, schedule: Q01DX001 (ip), vehicle: saline): 164 % of control

Structure (SMILES): CCc1ccc(C(=O)O)cc1S(=O)(=O)Cl
- T/C [16]: 101 % of control
- T/C [7]: 104 % of control
- T/C [17]: 97 % of control
- T/C [8]: 101 % of control
- T/C [18]: 95 % of control
- T/C [15]: 103 % of control
- T/C [12]: 97 % of control

Structure (SMILES): CC(C)C(C)CCC(C)C1CCC2=C3CCC4CC(O)CCC4(C)C3CCC21C (stereo unspecified)
- T/C (dose: 75.0 mg/kg/injection, schedule: Q01DX001 (ip), vehicle: saline with Tween-80): 89 % of control
- T/C (dose: 150.0 mg/kg/injection, schedule: Q01DX001 (ip), vehicle: saline with Tween-80): 92 % of control
- T/C (dose: 300.0 mg/kg/injection, schedule: Q01DX001 (ip), vehicle: saline with Tween-80): 100 % of control

Structure (SMILES): O=C1c2cccc3cccc(c23)C(=O)N1Cc1ccccc1
- T/C [12]: 98 % of control
- T/C [13]: 87 % of control
- T/C [14]: 91 % of control

Structure (SMILES): COc1ccc(Cn2cnc3c(=S)nc[nH]c32)cc1
- T/C [4]: 91 % of control
- T/C [5]: 100 % of control
- T/C [6]: 94 % of control

Structure (SMILES): COc1cc(Cl)ccc1NC(=O)Oc1ccc(Br)cc1
- T/C [18]: 92 % of control
- T/C [19]: 96 % of control
- T/C [20]: 87 % of control

Structure (SMILES): [Br][Sn]([Br])([c]1cccc2ccccc12)[c]1cccc2ccccc12
- T/C [12]: 105 % of control
- T/C [13]: 109 % of control
- T/C [14]: 97 % of control

Structure (SMILES): COC(C(N)=O)(c1ccccc1)C(F)(F)F (stereo unspecified)
- T/C [19]: 101 % of control
- T/C [12]: 102 % of control
- T/C [20]: 105 % of control
- T/C [13]: 100 % of control
- T/C [21]: 94 % of control
- T/C [14]: 89 % of control

Structure (SMILES): CC1([CH2][Hg][Cl])Cc2ccccc2O1 (stereo unspecified)
- T/C (dose: 1.56 mg/kg/injection, schedule: Q01DX009 (ip), vehicle: saline with Tween-80): 91 % of control
- T/C (dose: 3.13 mg/kg/injection, schedule: Q01DX009 (ip), vehicle: saline with Tween-80): 94 % of control
- T/C [22]: 101 % of control

Structure (SMILES): C=C1C(O)CC2CC1C2(C)C (stereo unspecified)
- T/C [18]: 98 % of control

Structure (SMILES): O=C(CCCN1CCC2(CC1)CNC(=O)N2c1ccccc1)c1ccc(F)cc1
- T/C [9]: 101 % of control
- T/C [10]: 98 % of control
- T/C [11]: 91 % of control

Structure (SMILES): CC(C)c1nc(CCl)c(CCl)n1Cc1ccccc1
- T/C (dose: 50.0 mg/kg/injection, schedule: Q01DX009 (ip), vehicle: Klucel (hydroxypropylcellulose) (HPC)): 97 % of control
- T/C (dose: 100.0 mg/kg/injection, schedule: Q01DX009 (ip), vehicle: Klucel (hydroxypropylcellulose) (HPC)): 94 % of control
- T/C (dose: 200.0 mg/kg/injection, schedule: Q01DX009 (ip), vehicle: Klucel (hydroxypropylcellulose) (HPC)): 90 % of control

Structure (SMILES): CC1(C)NC(=O)N(Br)C1=O
- T/C [19]: 88 % of control
- T/C [12]: 103 % of control
- T/C [20]: 89 % of control
- T/C [13]: 96 % of control
- T/C [14]: 103 % of control

Structure (SMILES): O=c1[nH]cnc2c1CN(c1ccccc1)C2
- T/C [1]: 113 % of control
- T/C [2]: 104 % of control

Structure (SMILES): CC1(c2ccccc2)OCCO1
- T/C [9]: 97 % of control
- T/C [19]: 95 % of control
- T/C [12]: 100 % of control
- T/C [10]: 94 % of control
- T/C [20]: 93 % of control
- T/C [13]: 100 % of control
- T/C [11]: 97 % of control
- T/C [21]: 97 % of control
- T/C [14]: 97 % of control

Structure (SMILES): CCOC(=O)C(CC)(C(=O)OCC)c1c(Cl)c(=O)oc2ccc(Cl)cc12
- T/C [9]: 100 % of control
- T/C [10]: 97 % of control
- T/C [11]: 91 % of control

Structure (SMILES): Nc1nc(SSc2nc(N)nc3c2ncn3C2OC(CO)CC2O)c2ncn(C3OC(CO)CC3O)c2n1 (stereo unspecified)
- T/C [3]: 118 % of control

Structure (SMILES): COc1c(/C=C/CO)cc2c(c1OC)OCO2
- T/C [12]: 95 % of control
- T/C [13]: 102 % of control
- T/C [14]: 102 % of control

Structure (SMILES): O=C1N(C2CCCCC2)CC2C(c3ccccc3)N(c3ccccc3)NC12O (stereo unspecified)
- T/C [9]: 92 % of control
- T/C [19]: 97 % of control
- T/C [10]: 91 % of control
- T/C [20]: 98 % of control
- T/C [11]: 88 % of control
- T/C [21]: 108 % of control

Structure (SMILES): COc1cc(Cl)ccc1NC(=O)N1CCN(c2ccccc2)CC1
- T/C [16]: 96 % of control
- T/C [17]: 96 % of control
- T/C [18]: 92 % of control and 93 % of control
- T/C [20]: 86 % of control

Structure (SMILES): Cc1cccc(C)c1C1=NCCN1
- T/C [16]: 98 % of control
- T/C [17]: 98 % of control
- T/C [18]: 98 % of control

Structure (SMILES): Cc1ccc([P+](Cc2ccccc2)(c2ccccc2)c2ccccc2)cc1
- T/C (dose: 5.0 mg/kg/injection, schedule: Q01DX001 (ip), vehicle: saline): 108 % of control
- T/C (dose: 10.0 mg/kg/injection, schedule: Q01DX001 (ip), vehicle: saline): 105 % of control
- T/C (dose: 20.0 mg/kg/injection, schedule: Q01DX001 (ip), vehicle: saline): 96 % of control
- T/C (dose: 40.0 mg/kg/injection, schedule: Q01DX001 (ip), vehicle: saline): 109 % of control

Structure (SMILES): NC1CCC(Br)C2CCCCC12 (stereo unspecified)
- T/C (dose: 5.0 mg/kg/injection, schedule: Q01DX001 (ip), vehicle: saline with Tween-80): 103 % of control
- T/C (dose: 10.0 mg/kg/injection, schedule: Q01DX001 (ip), vehicle: saline with Tween-80): 103 % of control
- T/C (dose: 20.0 mg/kg/injection, schedule: Q01DX001 (ip), vehicle: saline with Tween-80): 104 % of control

Structure (SMILES): CCc1cc2c(cc1C(=O)/C=C\c1cccc3ccccc13)C(C)(C)CCC2(C)C
- T/C [22]: 94 % of control
- T/C [16]: 86 % of control
- T/C [17]: 93 % of control
